According to patent publication US20240109917A1 (ACTELION PHARMACEUTICALS LTD, priority 2020, published 2024):
Like-named read-outs stand apart in the source and are kept apart here.

Tests used:
PDGFRβ = PDGFRβ (Rattus norvegicus (Rat), UniProt Q05030); assay: PDGFRβ Cellular Assay (PDGFRb P-Y751 HTRF in A10 cells stimulated with PDGF-BB); assay type: cell-based
Summary of the method: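 Rat A10 cells, plated overnight, were treated with compound for 3 hours, then stimulated with PDGF-BB (working stock 100 ng/mL in 10% FBS medium). After lysis, PDGFRβ P-Y751 was detected by HTRF.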

[1] = target: Tb-labeled inactive PDGFRβ (Homo sapiens (Human), UniProt P09619); assay: PDGFRβ LanthaScreen Assay; assay type: binding; conditions: read-out: PDGFR Lantha IC50
VEGFR2, unphosphorylated = VEGFR2, unphosphorylated (Homo sapiens (Human), UniProt P35968); assay: VEGFR ADP GLO Assay; assay type: biochemical
Chain of VEGFR2, unphosphorylated (P35968 20-1356): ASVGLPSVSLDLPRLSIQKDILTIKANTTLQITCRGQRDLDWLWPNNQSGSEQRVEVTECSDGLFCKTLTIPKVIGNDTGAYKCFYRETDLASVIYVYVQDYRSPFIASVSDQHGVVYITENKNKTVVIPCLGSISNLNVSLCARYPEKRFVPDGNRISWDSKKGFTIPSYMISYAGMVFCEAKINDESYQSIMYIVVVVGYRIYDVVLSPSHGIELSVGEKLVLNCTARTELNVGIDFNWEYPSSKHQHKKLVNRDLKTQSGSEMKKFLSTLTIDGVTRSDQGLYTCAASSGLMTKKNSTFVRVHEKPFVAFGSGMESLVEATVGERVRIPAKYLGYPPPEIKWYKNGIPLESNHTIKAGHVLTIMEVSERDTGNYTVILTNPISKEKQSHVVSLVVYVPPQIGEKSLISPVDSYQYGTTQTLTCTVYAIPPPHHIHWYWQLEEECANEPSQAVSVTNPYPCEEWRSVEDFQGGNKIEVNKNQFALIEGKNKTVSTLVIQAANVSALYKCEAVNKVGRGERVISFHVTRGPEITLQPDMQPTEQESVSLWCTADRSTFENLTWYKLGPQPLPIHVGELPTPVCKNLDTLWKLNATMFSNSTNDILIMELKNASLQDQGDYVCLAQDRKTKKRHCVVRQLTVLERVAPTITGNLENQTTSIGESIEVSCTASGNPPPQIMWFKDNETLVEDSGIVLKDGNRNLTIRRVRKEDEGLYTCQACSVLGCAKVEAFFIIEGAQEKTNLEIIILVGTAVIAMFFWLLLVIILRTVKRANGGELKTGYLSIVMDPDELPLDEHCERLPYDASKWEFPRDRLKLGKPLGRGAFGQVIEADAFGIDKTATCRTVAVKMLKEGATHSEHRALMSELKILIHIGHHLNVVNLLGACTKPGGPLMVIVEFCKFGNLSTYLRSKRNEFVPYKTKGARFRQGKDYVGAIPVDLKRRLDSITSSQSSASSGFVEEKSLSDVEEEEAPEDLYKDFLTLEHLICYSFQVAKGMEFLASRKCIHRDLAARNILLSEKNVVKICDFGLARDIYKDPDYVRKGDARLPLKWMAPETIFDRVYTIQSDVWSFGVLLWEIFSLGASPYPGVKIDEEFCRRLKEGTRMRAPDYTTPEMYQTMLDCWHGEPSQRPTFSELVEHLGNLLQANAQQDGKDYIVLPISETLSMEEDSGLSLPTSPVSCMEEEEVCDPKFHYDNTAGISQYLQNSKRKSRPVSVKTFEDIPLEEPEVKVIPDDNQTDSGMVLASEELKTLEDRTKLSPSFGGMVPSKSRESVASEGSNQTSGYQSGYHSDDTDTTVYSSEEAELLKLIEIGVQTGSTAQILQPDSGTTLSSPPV

Chain of Tb-labeled inactive PDGFRβ (P09619 33-1106): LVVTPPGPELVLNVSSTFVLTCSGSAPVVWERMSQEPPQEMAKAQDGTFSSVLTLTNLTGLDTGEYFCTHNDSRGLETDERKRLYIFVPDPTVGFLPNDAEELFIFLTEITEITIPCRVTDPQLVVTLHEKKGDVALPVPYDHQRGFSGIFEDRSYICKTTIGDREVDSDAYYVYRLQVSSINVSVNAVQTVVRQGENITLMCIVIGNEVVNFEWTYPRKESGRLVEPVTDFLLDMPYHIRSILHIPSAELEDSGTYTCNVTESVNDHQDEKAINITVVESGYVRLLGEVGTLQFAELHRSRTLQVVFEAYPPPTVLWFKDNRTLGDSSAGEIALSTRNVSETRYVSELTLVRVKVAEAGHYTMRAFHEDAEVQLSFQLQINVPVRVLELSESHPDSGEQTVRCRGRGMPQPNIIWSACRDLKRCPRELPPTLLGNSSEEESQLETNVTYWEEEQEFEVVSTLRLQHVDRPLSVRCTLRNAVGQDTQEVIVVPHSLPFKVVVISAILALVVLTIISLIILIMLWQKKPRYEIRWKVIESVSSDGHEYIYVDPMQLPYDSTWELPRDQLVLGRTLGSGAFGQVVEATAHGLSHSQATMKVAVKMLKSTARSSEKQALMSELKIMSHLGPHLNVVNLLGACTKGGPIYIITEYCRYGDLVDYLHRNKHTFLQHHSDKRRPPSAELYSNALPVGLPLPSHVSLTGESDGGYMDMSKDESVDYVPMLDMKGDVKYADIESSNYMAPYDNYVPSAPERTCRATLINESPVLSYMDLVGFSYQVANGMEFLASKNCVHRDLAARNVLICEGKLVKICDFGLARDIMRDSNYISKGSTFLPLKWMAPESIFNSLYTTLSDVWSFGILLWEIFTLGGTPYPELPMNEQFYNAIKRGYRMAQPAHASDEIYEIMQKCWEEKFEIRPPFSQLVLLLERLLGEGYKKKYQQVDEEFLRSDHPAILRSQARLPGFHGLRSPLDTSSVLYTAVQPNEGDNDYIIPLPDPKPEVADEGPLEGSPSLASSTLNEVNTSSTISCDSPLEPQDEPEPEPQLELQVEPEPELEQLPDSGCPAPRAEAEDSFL
Chain of PDGFRβ (Q05030 32-1097): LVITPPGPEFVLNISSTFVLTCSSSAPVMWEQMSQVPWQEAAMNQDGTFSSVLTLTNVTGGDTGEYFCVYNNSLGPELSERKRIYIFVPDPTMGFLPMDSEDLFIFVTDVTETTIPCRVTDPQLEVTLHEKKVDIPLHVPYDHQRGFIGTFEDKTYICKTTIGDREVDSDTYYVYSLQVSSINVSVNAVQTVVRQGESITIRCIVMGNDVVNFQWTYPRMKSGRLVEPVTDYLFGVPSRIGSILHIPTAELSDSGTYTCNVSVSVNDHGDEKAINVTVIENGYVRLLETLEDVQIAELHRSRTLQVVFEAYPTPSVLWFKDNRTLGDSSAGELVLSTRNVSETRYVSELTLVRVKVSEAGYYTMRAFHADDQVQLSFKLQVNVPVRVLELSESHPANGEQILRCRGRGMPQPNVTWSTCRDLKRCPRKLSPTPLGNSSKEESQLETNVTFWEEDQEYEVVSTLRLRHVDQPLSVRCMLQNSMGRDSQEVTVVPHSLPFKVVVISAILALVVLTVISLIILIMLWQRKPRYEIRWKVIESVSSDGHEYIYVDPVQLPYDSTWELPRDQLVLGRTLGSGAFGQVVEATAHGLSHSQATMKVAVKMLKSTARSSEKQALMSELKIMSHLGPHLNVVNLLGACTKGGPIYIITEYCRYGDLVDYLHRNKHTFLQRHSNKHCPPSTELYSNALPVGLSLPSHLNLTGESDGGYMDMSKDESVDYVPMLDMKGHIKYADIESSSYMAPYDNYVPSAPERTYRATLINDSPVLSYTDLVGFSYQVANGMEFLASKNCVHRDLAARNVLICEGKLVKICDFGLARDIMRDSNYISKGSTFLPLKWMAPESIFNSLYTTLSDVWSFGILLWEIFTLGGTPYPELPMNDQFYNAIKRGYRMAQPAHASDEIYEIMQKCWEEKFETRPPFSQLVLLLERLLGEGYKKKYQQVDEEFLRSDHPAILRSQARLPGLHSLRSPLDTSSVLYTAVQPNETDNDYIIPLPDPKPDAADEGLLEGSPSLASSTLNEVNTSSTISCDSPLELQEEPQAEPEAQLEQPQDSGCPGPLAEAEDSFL

For Cc1ncc(NC(=O)CN2CCC3(CC2)CC3)cc1NC(=O)c1cnn2cc(-c3cnn(CCO)c3)sc12 [Example 31, N-(5-(2-(6-azaspiro[2.5]octan-6-yl)acetamido)-2-methylpyridin-3-yl)-2-(1-(2-hydroxyethyl)-1H-pyrazol-4-yl)pyrazolo[5,1-b]thiazole-7-carboxamide], the IC50 (PDGFRβ; read-out: PDGFR Cellular IC50) was 11.1 nM, the IC50 [1] was 5.1 nM and the IC50 (VEGFR2, unphosphorylated) was > 7.5 µM.
In the case of Cc1ncc(NC(=O)CN2CCC3(CC3)C2)cc1NC(=O)c1cnn2cc(-c3cnn(CCO)c3)sc12 [Example 32, N-(5-(2-(5-azaspiro[2.4]heptan-5-yl)acetamido)-2-methylpyridin-3-yl)-2-(1-(2-hydroxyethyl)-1H-pyrazol-4-yl)pyrazolo[5,1-b]thiazole-7-carboxamide], the IC50 (PDGFRβ; read-out: PDGFR Cellular IC50) is reported as 20.5 nM, the IC50 [1] is reported as 5.5 nM and the IC50 (VEGFR2, unphosphorylated) is reported as > 7.5 µM.
Cc1ncc(NC(=O)CN2CCCC[C@H]2C)cc1NC(=O)c1cnn2cc(-c3cnn(CCO)c3)sc12 [Example 33, (R)-2-(1-(2-hydroxyethyl)-1H-pyrazol-4-yl)-N-(2-methyl-5-(2-(2-methyl-piperidin-1-yl)acetamido)pyridin-3-yl)pyrazolo[5,1-b]thiazole-7-carboxamide] was tested, and the IC50 (PDGFRβ; PDGFR Cellular IC50) was 10.1 nM, the IC50 [1] was 9.3 nM and the IC50 (VEGFR2, unphosphorylated) was > 7.5 µM.
In the case of COCCn1cc(-c2cn3ncc(C(=O)Nc4cc(NC(=O)CN5CC6CCC5CC6)cnc4C)c3s2)cn1 [Example 331, N-(5-(2-(2-azabicyclo[2.2.2]octan-2-yl)acetamido)-2-methylpyridin-3-yl)-2-(1-(2-methoxyethyl)-1H-pyrazol-4-yl)pyrazolo[5,1-b]thiazole-7-carboxamide], the IC50 (PDGFRβ; read-out: PDGFR Cellular IC50) is reported as 2.7 nM, the IC50 [1] is reported as 3.3 nM and the IC50 (VEGFR2, unphosphorylated) is reported as > 7.5 µM.
With COCCn1cc(-c2cn3ncc(C(=O)Nc4cc(NC(=O)CN5CCCC56CCC6)cnc4C)c3s2)cn1 [Example 332, N-(5-(2-(5-azaspiro[3.4]octan-5-yl)acetamido)-2-methylpyridin-3-yl)-2-(1-(2-methoxyethyl)-1H-pyrazol-4-yl)pyrazolo[5,1-b]thiazole-7-carboxamide] the IC50 (PDGFRβ; read-out: PDGFR Cellular IC50) was 4.5 nM, the IC50 [1] was 4.1 nM and the IC50 (VEGFR2, unphosphorylated) was > 7.5 µM.
For COCCn1cc(-c2cn3ncc(C(=O)Nc4cc(NC(=O)CN5CCC56CCC6)cnc4C)c3s2)cn1 [Example 333, N-(5-(2-(1-azaspiro[3.3]heptan-1-yl)acetamido)-2-methylpyridin-3-yl)-2-(1-(2-methoxyethyl)-1H-pyrazol-4-yl)pyrazolo[5,1-b]thiazole-7-carboxamide], the IC50 (PDGFRβ; read-out: PDGFR Cellular IC50) was 3.3 nM, the IC50 [1] was 3.1 nM and the IC50 (VEGFR2, unphosphorylated) was > 7.5 µM.
In the case of COCCn1cc(-c2cn3ncc(C(=O)Nc4cc(NC(=O)CN5C[C@H]6CC[C@@H]5C6)cnc4C)c3s2)cn1 [Example 334, N-(5-(2-((1R,4S)-2-azabicyclo[2.2.1]heptan-2-yl)acetamido)-2-methylpyridin-3-yl)-2-(1-(2-methoxyethyl)-1H-pyrazol-4-yl)pyrazolo[5,1-b]thiazole-7-carboxamide], the IC50 (PDGFRβ; PDGFR Cellular IC50) is reported as 11.7 nM, the IC50 [1] is reported as 9.1 nM and the IC50 (VEGFR2, unphosphorylated) is reported as > 7.5 µM.
COCCn1cc(-c2cn3ncc(C(=O)Nc4cc(NC(=O)CN5CCCC6(CC6)C5)cnc4C)c3s2)cn1 [Example 335, N-(5-(2-(5-azaspiro[2.5]octan-5-yl)acetamido)-2-methylpyridin-3-yl)-2-(1-(2-methoxyethyl)-1H-pyrazol-4-yl)pyrazolo[5,1-b]thiazole-7-carboxamide] was tested, and the IC50 (PDGFRβ; read-out: PDGFR Cellular IC50) was 3.5 nM, the IC50 [1] was 3 nM and the IC50 (VEGFR2, unphosphorylated) was > 7.5 µM.
COCCn1cc(-c2cn3ncc(C(=O)Nc4cc(NC(=O)CN5CCC(C)(C)C5)cnc4C)c3s2)cn1 [Example 336, N-(5-(2-(3,3-dimethylpyrrolidin-1-yl)acetamido)-2-methylpyridin-3-yl)-2-(1-(2-methoxyethyl)-1H-pyrazol-4-yl)pyrazolo[5,1-b]thiazole-7-carboxamide] was tested, and the IC50 (PDGFRβ; read-out: PDGFR Cellular IC50) was 3.1 nM, the IC50 [1] was 3.3 nM and the IC50 (VEGFR2, unphosphorylated) was > 7.5 µM.
COCCn1cc(-c2cn3ncc(C(=O)Nc4cc(NC(=O)CN5CCCC5)cnc4C)c3s2)cn1 [Example 337, 2-(1-(2-methoxyethyl)-1H-pyrazol-4-yl)-N-(2-methyl-5-(2-(pyrrolidin-1-yl)acetamido)pyridin-3-yl)pyrazolo[5,1-b]thiazole-7-carboxamide] was tested, and the IC50 (PDGFRβ; read-out: PDGFR Cellular IC50) was 24.9 nM, the IC50 [1] was 46.2 nM and the IC50 (VEGFR2, unphosphorylated) was > 7.5 µM.
